Reference: PubChem BioAssay (NCI)
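96-well plates; 48 h exposure; 5 concentrations. Endpoints by linear interpolation between flanking doses. Not reached: highest tested concentration assigned. GI50 is the concentration that inhibits growth by half. The concentration for full growth arrest is given as TGI.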

Experiments:
Test in all cases: NCI anticancer screen, dose series, 48 h
[1] = system: HCT-15 colon
[2] = system: ACHN renal
[3] = system: HS 578T breast
[4] = system: SK-OV-3 ovarian
[5] = system: SNB-75 CNS
[6] = system: MDA-MB-231 breast
[7] = system: NCI-H226 lung
[8] = system: SNB-19 CNS
[9] = system: UACC-257 melanoma
[10] = system: SK-MEL-28 melanoma
[11] = system: KM12 colon
[12] = system: COLO 205 colon
[13] = system: CAKI-1 renal
[14] = system: RPMI-8226 leukemia
[15] = system: TK-10 renal
[16] = system: OVCAR-5 ovarian
[17] = system: OVCAR-8 ovarian
[18] = system: SF-539 CNS
[19] = system: HT29 colon
[20] = system: SK-MEL-2 melanoma
[21] = system: SW-620 colon
[22] = system: IGROV1 ovarian
[23] = system: LOX IMVI melanoma
[24] = system: NCI-H522 lung
[25] = system: MDA-MB-435
[26] = system: HCC-2998 colon
[27] = system: NCI/ADR-RES ovarian
[28] = system: HOP-92 NSCLC
[29] = system: 786-0 renal
[30] = system: OVCAR-3 ovarian
[31] = system: HCT-116 colon
[32] = system: HOP-62 NSCLC
[33] = system: MCF7 breast
[34] = system: BT-549 breast
[35] = system: DU-145 prostate
[36] = system: SR leukemia
[37] = system: NCI-H460 lung
[38] = system: MALME-3M melanoma
[39] = system: T-47D breast
[40] = system: UO-31 renal
[41] = system: M14 melanoma
[42] = system: U251 CNS
[43] = system: SN12C renal
[44] = system: SF-268 CNS
[45] = system: A498 renal
[46] = system: UACC-62 melanoma
[47] = system: K-562 leukemia
[48] = system: HL-60(TB) leukemia
[49] = system: EKVX NSCLC
[50] = system: NCI-H23 lung
[51] = system: OVCAR-4 ovarian
[52] = system: A549 NSCLC
[53] = system: SK-MEL-5 melanoma
[54] = system: CCRF-CEM leukemia
[55] = system: PC-3 prostate
[56] = system: SF-295 CNS
[57] = system: RXF 393 renal
[58] = system: MOLT-4 leukemia

`O=C1NC(=O)/C(=C/c2ccc3nccc(-c4ccncc4)c3c2)S1` was tested, and the GI50 [1] was 292 nM, the TGI [1] was > 5080 nM and the GI50 [2] was 469 nM. It also gave a TGI [2] of 8390 nM, a GI50 [3] of 119 nM and a TGI [3] of 540 nM. For the same compound, the GI50 [4] was 201 nM, the TGI [4] was 918 nM and the GI50 [5] was 51.8 nM. For the same compound, the TGI [5] was 448 nM, the GI50 [6] was 387 nM and the TGI [6] was 3920 nM. It also gave a GI50 [7] of 239 nM, a TGI [7] of 2760 nM and a GI50 [8] of 429 nM. For the same compound, the TGI [8] was 5930 nM, the GI50 [9] was 528 nM and the TGI [9] was 5220 nM. It also gave a GI50 [10] of 237 nM, a TGI [10] of 2290 nM and a GI50 [11] of 817 nM. For the same compound, the TGI [11] was > 10000 nM, the GI50 [12] was 454 nM and the TGI [12] was 3670 nM. It also gave a GI50 [13] of 289 nM, a TGI [13] of 2040 nM and a GI50 [14] of 1190 nM. It also gave a TGI [14] of 6750 nM, a GI50 [15] of 197 nM and a TGI [15] of 1240 nM. It also gave a GI50 [16] of 326 nM, a TGI [16] of 3890 nM and a GI50 [17] of 517 nM. The TGI [17] was > 10000 nM, the GI50 [18] was 294 nM and the TGI [18] was 1580 nM. For the same compound, the GI50 [19] was 423 nM, the TGI [19] was 6290 nM and the GI50 [20] was 438 nM. For the same compound, the TGI [20] was 2250 nM, the GI50 [21] was 517 nM and the TGI [21] was > 10000 nM. The GI50 [22] was 117 nM, the TGI [22] was 612 nM and the GI50 [23] was 247 nM. For the same compound, the TGI [23] was 2730 nM, the GI50 [24] was 230 nM and the TGI [24] was 1810 nM. For the same compound, the GI50 [25] was 402 nM, the TGI [25] was > 7250 nM and the GI50 [26] was 350 nM. For the same compound, the TGI [26] was 3890 nM, the GI50 [27] was 885 nM and the TGI [27] was > 10000 nM. The GI50 [28] was 80.6 nM, the TGI [28] was 494 nM and the GI50 [29] was 345 nM. The TGI [29] was 3150 nM, the GI50 [30] was 252 nM and the TGI [30] was 2070 nM. The GI50 [31] was 466 nM, the TGI [31] was > 5610 nM and the GI50 [32] was 359 nM. The TGI [32] was 4260 nM, the GI50 [33] was 164 nM and the TGI [33] was > 10000 nM. For the same compound, the GI50 [34] was 212 nM, the TGI [34] was 1390 nM and the GI50 [35] was 431 nM. For the same compound, the TGI [35] was > 5790 nM, the GI50 [36] was 547 nM and the TGI [36] was 4880 nM. For the same compound, the GI50 [37] was 487 nM, the TGI [37] was > 10000 nM and the GI50 [38] was 288 nM. It also gave a TGI [38] of 2120 nM, a GI50 [39] of 49.7 nM and a TGI [39] of 432 nM. It also gave a GI50 [40] of 140 nM, a TGI [40] of 1050 nM and a GI50 [41] of 365 nM. The TGI [41] was 2790 nM, the GI50 [42] was 261 nM and the TGI [42] was 2230 nM. The GI50 [43] was 396 nM, the TGI [43] was > 10000 nM and the GI50 [44] was 346 nM. The TGI [44] was 5150 nM, the GI50 [45] was 33.5 nM and the TGI [45] was 208 nM. The GI50 [46] was 187 nM, the TGI [46] was 1300 nM and the GI50 [47] was 1890 nM. The TGI [47] was > 10000 nM, the GI50 [48] was 325 nM and the TGI [48] was > 6770 nM. It also gave a GI50 [49] of 407 nM, a TGI [49] of 3670 nM and a GI50 [50] of 633 nM. The TGI [50] was > 6000 nM, the GI50 [51] was 503 nM and the TGI [51] was 5890 nM. For the same compound, the GI50 [52] was 610 nM, the TGI [52] was 5240 nM and the GI50 [53] was 419 nM. For the same compound, the TGI [53] was 1630 nM, the GI50 [54] was 495 nM and the TGI [54] was > 10000 nM. It also gave a GI50 [55] of 282 nM, a TGI [55] of 2900 nM and a GI50 [56] of 356 nM. It also gave a TGI [56] of 2130 nM, a GI50 [57] of 251 nM and a TGI [57] of 1300 nM. For the same compound, the GI50 [58] was 645 nM and the TGI [58] was 9910 nM.
